What was measured:
[1] = tested on: Ixodes scapularis nymphs; assay: Residual activity, aged treated vials, ticks; assay type: in vivo; conditions: for LC90, residual activity: NE = not effective
Description: (§1) Briefly, groups of 10 nymphal I. scapularis and X. cheopis fleas were used in all tests (more than a total of 5,240 nymphs and 4,860 fleas were exposed to the compounds). The inner surface of 2-dram friction cap vials were treated with the compound/acetone solution, or acetone only as a control, and left to air-dry overnight (see also, Panella et al., J. Med. Entomol., 42(3):352-358, 2005. Three to 4 holes were made in the plastic cap to allow for air exchange. Nymphal ticks and adult fleas were then placed directly into the vials using forceps. Vials containing ticks or fleas were placed in desiccators for 24 h at 21° C. and 90% RH. Morbidity and mortality was recorded at 1, 2, 4, 8, and 24 h after initial exposure.

[2] = tested on: Ae. aegypti adults; assay: Adult mosquito bottle bioassay; assay type: in vivo, Aedes aegypti; conditions: for Slope: probit; for LC50 (15 min) / LC50 (24 h) / LC90 (15 min) / LC90 (24 h): Aedes aegypti adult mosquitoes, alone, or 1:1 with carvacrol (in parenthesis)
Description: (§2) Adult mosquitoes were tested using the bottle bioassay method of Brogden and McAllister (J. Am. Mosq. Control Assoc., 14:159–64, 1998) with minor modifications. Natural product extracts were two-fold serially diluted for a total of 8 concentrations ranging from 0.002% to 0.25% in 1.5 ml of acetone. Individual dilutions were added to 250 ml Wheaton glass bottles and capped. Bottles were manipulated to evenly coat all inner surfaces. The caps were removed and bottles were allowed to air-dry overnight. Once bottles were completely dry, 10–50 (in some tests 25–50) adult mosquitoes were aspirated into the bottles. Mosquitoes were held in the bottles for 24 h at 23° C. and 85% RH. Morbidity and mortality were recorded at 15, 30, 45, and 60 min and 24 hour intervals. One bottle for each replicate was treated with acetone only and served as a control. The dose-mortality data was evaluated with probit analysis, using the LdP Line software, to determine LC50 and LC90 values.
Carvacrol was combined with compound 7, 9, or 10 at a 1:1 ratio (7.5 μl of carvacrol:7.5 μl of compound 7, 9, or 10 was added to 2,985 μl of acetone for a 0.5% solution, from which serial dilutions were made), and tested as previously described against nymphal ticks and adult and larval mosquitoes.

[3] = tested on: I. scapularis nymphs; assay: Tick bioassay, treated 2-dram vials, probit analysis; assay type: in vivo, Ixodes scapularis; conditions: for Slope: probit; for LC50 (1 h) / LC50 (24 h) / LC90 (1 hr) / LC90 (24 h): Ixodes scapularis nymphal ticks, alone, or 1:1 with carvacrol (in parenthesis)
From the text: A control treated with acetone only was run with each series.
For each time point, if ticks and fleas were incapable of movement, maintaining normal posture, leg coordination, ability to right themselves, or any signs of life, they were considered moribund or dead.

[4] = tested on: Xenopsylla cheopis adults; assay: Residual activity, aged treated vials, fleas; assay type: in vivo
Description: as §1

[5] = tested on: fourth-instar Aedes aegypti larvae; assay: Larval mosquito bioassay; assay type: in vivo; conditions: Aedes aegypti larval mosquitoes, concentration of the 1 ml added to 150 ml water
Description: Individual groups of 10 fourth-instar Aedes aegypti larvae were contained in 150 ml of water and exposed to […] of essential oils prepared by 2-fold serial dilutions ranging from 0.06%–5.0% in 1 ml of acetone. A control group of larvae were exposed to 1 ml of acetone only.
It is important to note that larval mosquitoes are tested in their natural environment, i.e., in water. The particular assays used herein involved groups of 10 larval mosquitoes in 150 ml of water. The weight percentages reported for lethal concentration for larval mosquitoes are the weight percentages added to the 150 ml water (as opposed to the final percentage of the tested compound(s) in the 150 ml water). As one of skill in the art will appreciate, test compound(s) added to a volume of water (such as, 150 ml) can be dramatically diluted depending upon the water solubility of the tested compound. […] If the tested compound is an oil (such as, carvacrol, nootkatone, or 13-hydroxy-valencene), it most likely floats on the surface of the water.

[6] = tested on: ticks, fleas, and mosquitoes; assay: Residual activity, general statements (Examples 9, 17); assay type: in vivo; conditions: ticks
[7] = tested on: Aedes aegypti adults; assay: Residual activity, aged treated bottles, mosquitoes; assay type: in vivo
Description: as §2

[8] = tested on: Ixodes scapularis nymphal ticks; assay: Tick repellency bioassay; assay type: in vivo
From the text: One-hundred (100) μl of test compound was pipetted onto a cotton-tipped applicator mounted to the bottom center of a 1 dram glass shell vial using non-toxic modeling clay. A total of 8 concentrations were screened with doses ranging from 0.04–5.0%. Applicators treated with acetone only served as controls. A line was drawn around the perimeter of the vial immediate to the base of the treated cotton portion of the applicator. The area above the line was designated the “repellent zone”. The vial was allowed to air-dry 1 h before a single tick was introduced. Vials were covered with a single piece of mesh and fitted with a hollowed-out plastic cap to cover the opening of the vial; this prevented the tick from escaping but allowed for air exchange. Vials were breathed upon by investigators at 1 min intervals and a hand was placed over the test vials to provide stimuli for ticks to pass into the repellent zone. […] If the tick crossed over and remained in the “repellent zone” for ≧5 sec, the tick was deemed non-repelled by the test compound. Each test was replicated 10 times using a new tick for each test. Repellent activity was determined at 1, 2, 3, and 4 h after treatment. Probit analysis was used to determine repellent efficacy (RD50 and RD95).

[9] = tested on: X. cheopis adults; assay: Flea bioassay, treated 2-dram vials, probit analysis; assay type: in vivo, Xenopsylla cheopis; conditions: 24 h exposure; for Slope: probit
Description: Med. […] A control treated with acetone only was run with each series. Tick and flea susceptibility was evaluated using a modification of the disposable pipette method of Barnard et al. (J. Econ. Entomol., 74:466-69, 1981) and Maupin and […]. Med. […] The inner surface of 2-dram friction cap vials were treated with the compound/acetone solution, or acetone only as a control, and left to air-dry overnight (see also, […] et al., J. Med. […] Three to 4 holes were made in the plastic cap to allow for air exchange. Nymphal ticks and adult fleas were then placed directly into the vials using forceps. […] For each time point, if ticks and fleas were incapable of movement, maintaining normal posture, leg coordination, ability to right themselves, or any signs of life, they were considered moribund or dead.

[10] = tested on: nymphal Ixodes scapularis; assay: Treated-vial biocidal screening with 2% acetone solutions (Example 2), tick nymphs; assay type: in vivo; conditions: treated vials sat 72 h; arthropods added for the final 24 h
Description: (§3) Samples of the compounds listed below were obtained as described in Example 1, and screened for biocidal activities against nymphal Ixodes scapularis. In this example, 2% acetone solutions (wt/vol) of the compounds were applied to inner surfaces of 2-dram friction cap vials. Vials and caps were treated then allowed to dry for a minimum of 4 hours before placing 10 nymphs in each container. These same vials were used to challenge additional nymphs and adult I. scapularis ticks and adult Xenopsylla cheopis fleas through five weeks to observe any possible residual activity.
(§4) Numbers in parentheses refer to length of treatment in terms of hours (h) or weeks (wk). Data is presented in terms of number killed/number tested. For test periods longer than 24 hours, the treated vials were allowed to sit for the stated period after drying (72 h, 4 wk, or 5 wk) and each group of arthropods was added to the vials for the final 24 h of the test period.

[11] = tested on: adult I. scapularis ticks; assay: Treated-vial biocidal screening with 2% acetone solutions (Example 2), adult ticks, residual; assay type: in vivo, Ixodes scapularis; conditions: treated vials sat 4 wk; arthropods added for the final 24 h
Description: as §3, §4

[12] = tested on: adult Xenopsylla cheopis fleas; assay: Treated-vial biocidal screening with 2% acetone solutions (Example 2), adult fleas, residual; assay type: in vivo; conditions: treated vials sat 5 wk; arthropods added for the final 24 h
Description: as §3, §4

[13] = 24 h exposure, NE = not effective at concentrations tested
[14] = 2 weeks after treatment, NE = not effective
[15] = 1 h after compound applied to applicator, listed as Nootkatone (Compound 9)
[16] = 4 h after compound applied to applicator, listed as Nootkatone (Compound 9)
[17] = 1 h after compound applied to applicator
[18] = 4 h after compound applied to applicator

| SMILES | Slope, residual activity ([1]; 1 week after treatment) | LC90, residual activity ([1]; 1 week after treatment) | Slope, residual activity ([1]; 2 weeks after treatment) | LC90, residual activity ([1]; 2 weeks after treatment) | Slope ([2]; 24 h exposure) | LC50 (15 min) [2] | LC50 (24 h) [2] | LC90 (15 min) [2] | LC90 (24 h) [2] | Slope ([3]; 24 h exposure) | LC50 (1 h) [3] | LC50 (24 h) [3] | LC90 (1 hr) [3] | LC90 (24 h) [3] | Slope, residual activity ([4]; 1 week after treatment) | Slope, residual activity ([4]; 2 weeks after treatment) | LC50 (1 h) [5] | LC50 (24 h) [5] | LC90 (1 hr) [5] | LC90 (24 h) [5] | further results |
| --- | --- | --- | --- | --- | --- | --- | --- | --- | --- | --- | --- | --- | --- | --- | --- | --- | --- | --- | --- | --- | --- |
| C=C(C)[C@@H]1CCC2=CC(=O)C[C@@H](C)[C@]2(C)C1 [Compound 9, Nootkatone] | 1.304 | 0.08 percent concentration, wt:vol | 2.649 | 0.027 percent concentration, wt:vol | 2.845 | 0.136 % (wt:vol) | 0.0075 % (wt:vol) | 0.453 % (wt:vol) | 0.021 % (wt:vol) | 3.061 | 0.016 % (wt:vol) | 0.0033 % (wt:vol) | 0.331 % (wt:vol) | 0.0087 % (wt:vol) | 1.633 | 2.571 | 6.51 % (wt:vol) | 1.574 % (wt:vol) | 22.644 % (wt:vol) | 2.757 % (wt:vol) | LC90 [2, 13]: 0.021 percent concentration, wt:vol; LC90 [3, 13]: 0.0087 percent concentration, wt:vol; LC50 (1 h) ([3]; listed as compound 9): 0.016 % (wt:vol); Slope, residual activity ([4]; 4 weeks after treatment): 3.135; residual activity [6]: considerable biological activity through the four week time period; LC90, residual activity ([7]; 1 week after treatment): 0.018 percent concentration, wt:vol; Slope, residual activity ([7]; 1 week after treatment): 4.336; Slope, residual activity ([7]; 2 weeks after treatment): 4.014; LC90, residual activity [7, 14]: 0.0088 percent concentration, wt:vol; Slope, residual activity ([7]; 4 weeks after treatment): 4.169; Slope (±SEM) ([8]; 1 h, listed as Nootkatone (Compound 9)): 1.326 (±0.345); RD50 [8, 15]: 0.101 % (wt:vol); RD95 [8, 15]: 1.758 % (wt:vol); Slope (±SEM) ([8]; 4 h, listed as Nootkatone (Compound 9)): 1.406 (±0.299); RD50 [8, 16]: 0.173 % (wt:vol); RD95 [8, 16]: 2.561 % (wt:vol); LC90 ([9]; NE = not effective at concentrations tested): 0.018 percent concentration, wt:vol; Slope [9]: 2.9 |
| C=C(CO)C1CCC2=CCC[C@@H](C)[C@]2(C)C1 (stereo partly drawn) [Compound 10, 13-hydroxy-valencene] | 3.005 | 0.019 percent concentration, wt:vol | 1.781 | 0.044 percent concentration, wt:vol | 2.094 | 0.077 % (wt:vol) | 0.0034 % (wt:vol) | 0.373 % (wt:vol) | 0.014 % (wt:vol) | 2.562 | 0.017 % (wt:vol) | 0.0054 % (wt:vol) | 0.065 % (wt:vol) | 0.014 % (wt:vol) | 2.218 | 2.442 | 5.132 % (wt:vol) | 0.975 % (wt:vol) | 13.425 % (wt:vol) | 1.23 % (wt:vol) | Slope, residual activity ([1]; 4 weeks after treatment): 1.285; LC50 (24 h) ([5]; listed as 13-hydroxy-valencene): 1.23 % (wt:vol); residual activity [6]: considerable biological activity through the four week time period; LC90, residual activity ([7]; 1 week after treatment): 0.058 percent concentration, wt:vol; Slope, residual activity ([7]; 1 week after treatment): 3.286; Slope, residual activity ([7]; 2 weeks after treatment): 6.932; LC90, residual activity [7, 14]: 0.021 percent concentration, wt:vol; Slope, residual activity ([7]; 4 weeks after treatment): 2.645; LC90, residual activity ([7]; 4 weeks after treatment, NE = not effective): 0.04 percent concentration, wt:vol; Slope (±SEM) ([8]; 1 h): 1.332 (±0.313); RD50 [8, 17]: 0.095 % (wt:vol); RD95 [8, 17]: 1.637 % (wt:vol); Slope (±SEM) ([8]; 4 h): 1.066 (±0.307); RD50 [8, 18]: 0.114 % (wt:vol); RD95 [8, 18]: 3.993 % (wt:vol); Slope [9]: 3.143 |
| CC(C)=CCc1ccc(O)c(=O)cc1C(C)C [Compound 11, Nootkatin] | – | – | – | – | 1.327 | – | – | – | – | – | – | – | – | – | – | – | – | – | – | – | I. scapularis nymphs (72 h), number killed/number tested [10]: 0/5; I. scapularis adults (4 wk), number killed/number tested [11]: 0/5; X. cheopis adults (5 wk), number killed/number tested [12]: 0/5 |
